Data: US10800792B2, “Inhibitors of Bruton's tyrosine kinase and method of their use” (JANSSEN PHARMACEUTICA NV, priority 2015, dated 2020)
Read-outs that look alike come from different tables or passages of the source.

Molecular target: unphosphorylated-BTK kinase domain (UP-BTK), GST-tagged human BTK (389-659aa) (Homo sapiens (Human), UniProt Q06187)
Assay: BTK kinase Lanthascreen binding assay
Conditions: pIC50 = negative log of the IC50 in molar; for IC50: read-out: BTK_I_binding pIC50 (converted)
Method: BTK Kinase Lanthascreen Binding Assay:
A BTK kinase lanthascreen binding assay monitors compound binding to unphosphorylated-BTK kinase domain (UP-BTK), by competing with a fluorescent labeled tracer. […] Data were analyzed using Xlfit™ version 5.3 from ID Business Solutions (Guildford), Microsoft Excel add-in. pIC50 refers to the negative log of the IC50 in molar

[1] = 60 minutes incubation, 50 nM Tracer 236
[2] = unphosphorylated-BTK kinase domain, 50 nM Tracer 236, 60 minutes

unphosphorylated-BTK kinase domain (UP-BTK), GST-tagged human BTK (389-659aa), sequence (Q06187 389-659): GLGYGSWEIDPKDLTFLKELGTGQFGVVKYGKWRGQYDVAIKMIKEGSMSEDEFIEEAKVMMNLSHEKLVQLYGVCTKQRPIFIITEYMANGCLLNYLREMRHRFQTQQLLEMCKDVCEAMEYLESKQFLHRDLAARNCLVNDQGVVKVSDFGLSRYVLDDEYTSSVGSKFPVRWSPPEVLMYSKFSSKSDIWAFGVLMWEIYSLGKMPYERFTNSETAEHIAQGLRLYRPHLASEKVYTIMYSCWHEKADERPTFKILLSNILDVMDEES

| BTK_I_binding pIC50 [1] | Structure (SMILES) | also measured |
| --- | --- | --- |
|  | C=CC(=O)N1C[C@@H](F)[C@@H](NC(=O)c2sc3nccc4c3c2NC(=O)N4c2ccc(Oc3ccccc3)cc2C)C1 (single isomer, unassigned) [Example 28, N-((3S,4R)-1-Acryloyl-4-fluoropyrrolidin-3-yl)-5-(*S)-(2-methyl-4-phenoxyphenyl)-4-oxo-4,5-dihydro-3H-1-thia-3,5,8-triazaacenaphthylene-2-carboxamide] | IC50 [1]: 12.6 nM |
|  | Cc1cc(Oc2ccccc2)ccc1N1C(=O)Nc2c(C(=O)N[C@@H]3CCCN(C#N)C3)sc3nccc1c23 (single isomer, unassigned) [Example 35, (R)—N-(1-Cyanopiperidin-3-yl)-5-(*S)-(2-methyl-4-phenoxyphenyl)-4-oxo-4,5-dihydro-3H-1-thia-3,5,8-triazaacenaphthylene-2-carboxamide] | IC50 [1]: 31.6 nM |
| 7.2 | Cc1cc(Oc2ccccc2)ccc1N1C(=O)Nc2c(C(=O)N[C@@H]3CCCN(C(=O)/C(C#N)=C/C(C)(C)N4CCOCC4)C3)sc3nccc1c23 (single isomer, unassigned) [Example 43, (R,E)-N-(1-(2-Cyano-4-methyl-4-morpholinopent-2-enoyl)piperidin-3-yl)-5-(*S)-(2-methyl-4-phenoxyphenyl)-4-oxo-4,5-dihydro-3H-1-thia-3,5,8-triazaacenaphthylene-2-carboxamide] |  |
| 7.9 | C#CC(=O)N1CCC[C@@H](NC(=O)c2sc3nccc4c3c2NC(=O)N4c2ccc(Oc3ccccc3)cc2C)C1 (single isomer, unassigned) [Example 46, (R)-5-(*S)-(2-methyl-4-phenoxyphenyl)-4-oxo-N-(1-propioloylpiperidin-3-yl)-4,5-dihydro-3H-1-thia-3,5,8-triazaacenaphthylene-2-carboxamide] |  |
| 7.2 | C=C(F)C(=O)N1CCC[C@@H](NC(=O)c2sc3nccc4c3c2NC(=O)N4c2ccc(Oc3ccccc3)cc2C)C1 (single isomer, unassigned) [Example 49, (R)—N-(1-(2-Fluoroacryloyl)piperidin-3-yl)-5-(*S)-(2-methyl-4-phenoxyphenyl)-4-oxo-4,5-dihydro-3H-1-thia-3,5,8-triazaacenaphthylene-2-carboxamide] |  |
| 7.4 | CC#CC(=O)N1CCC[C@@H](NC(=O)c2sc3nccc4c3c2NC(=O)N4c2ccc(Oc3ccccc3)cc2C)C1 (single isomer, unassigned) [Example 55, (R)—N-(1-(But-2-ynoyl)piperidin-3-yl)-5-(*S)-(2-methyl-4-phenoxyphenyl)-4-oxo-4,5-dihydro-3H-1-thia-3,5,8-triazaacenaphthylene-2-carboxamide] |  |
| 7.7 | Cc1cc(Oc2ccccc2)ccc1N1C(=O)Nc2c(C(=O)N[C@H]3CCOC3)sc3nccc1c23 (single isomer, unassigned) [Example 68, (S)-5-(*S)-(2-Methyl-4-phenoxyphenyl)-4-oxo-N-(tetrahydrofuran-3-yl)-4,5-dihydro-3H-1-thia-3,5,8-triazaacenaphthylene-2-carboxamide] |  |
| 7.8 | Cc1cc(Oc2ccccc2)ccc1N1C(=O)Nc2c(C(=O)N[C@@H]3CCOC3)sc3nccc1c23 (single isomer, unassigned) [Example 80, (R)-5-(*S)-(2-Methyl-4-phenoxyphenyl)-4-oxo-N-(tetrahydrofuran-3-yl)-4,5-dihydro-3H-1-thia-3,5,8-triazaacenaphthylene-2-carboxamide] |  |
| 7.5 | CCC(=O)N1CC[C@@H](NC(=O)c2sc3nccc4c3c2NC(=O)N4c2ccc(Oc3ccccc3)cc2C)C1 (single isomer, unassigned) [Example 84, (R)-5-(*S)-(2-Methyl-4-phenoxyphenyl)-4-oxo-N-(1-propionylpyrrolidin-3-yl)-4,5-dihydro-3H-1-thia-3,5,8-triazaacenaphthylene-2-carboxamide] |  |
| 7.1 | Cc1cc(Oc2ccccc2)ccc1N1C(=O)Nc2c(C(=O)N[C@@H]3CCN(C(C)C)C3)sc3nccc1c23 (single isomer, unassigned) [Example 93, (R)—N-(1-Isopropylpyrrolidin-3-yl)-5-(*S)-(2-methyl-4-phenoxyphenyl)-4-oxo-4,5-dihydro-3H-1-thia-3,5,8-triazaacenaphthylene-2-carboxamide] |  |
| 7.6 | Cc1cc(Oc2ccccc2)ccc1N1C(=O)Nc2c(C(=O)N[C@@H]3CCCN(C(=O)CCO)C3)sc3nccc1c23 (single isomer, unassigned) [Example 99, (R)—N-(1-(3-Hydroxypropanoyl)piperidin-3-yl)-5-(*S)-(2-methyl-4-phenoxyphenyl)-4-oxo-4,5-dihydro-3H-1-thia-3,5,8-triazaacenaphthylene-2-carboxamide] |  |
| 7.1 | C/C=C/C(=O)N1CCC[C@@H](NC(=O)c2sc3nccc4c3c2NC(=O)N4c2ccc(Oc3ccccc3)cc2C)C1 (single isomer, unassigned) [Example 100, (R,E)-N-(1-(But-2-enoyl)piperidin-3-yl)-5-(*S)-(2-methyl-4-phenoxyphenyl)-4-oxo-4,5-dihydro-3H-1-thia-3,5,8-triazaacenaphthylene-2-carboxamide] |  |
| 7.5 | CNCC(=O)N1CCC[C@@H](NC(=O)c2sc3nccc4c3c2NC(=O)N4c2ccc(Oc3ccccc3)cc2C)C1 (single isomer, unassigned) [Example 183, (R)-5-(*S)-(2-Methyl-4-phenoxyphenyl)-N-(1-(2-(methylamino)acetyl)piperidin-3-yl)-4-oxo-4,5-dihydro-3H-1-thia-3,5,8-triazaacenaphthylene-2-carboxamide] |  |
| 7.4 | CCC(=O)N1CCC[C@@H](NC(=O)c2sc3nccc4c3c2NC(=O)N4c2ccc(Oc3ccccc3)cc2C)C1 (single isomer, unassigned) [Example 184, (R)-5-(*S)-(2-Methyl-4-phenoxyphenyl)-4-oxo-N-(1-propionylpiperidin-3-yl)-4,5-dihydro-3H-1-thia-3,5,8-triazaacenaphthylene-2-carboxamide] |  |
| 6.2 | CNCC(=O)N1CCC[C@@H](NC(=O)c2sc3nccc4c3c2NC(=O)N4c2ccc(Oc3ccccc3)cc2C)C1 (single isomer, unassigned) [Example 253, (R)-5-(*R)-(2-Methyl-4-phenoxyphenyl)-N-(1-(2-(methylamino)acetyl)piperidin-3-yl)-4-oxo-4,5-dihydro-3H-1-thia-3,5,8-triazaacenaphthylene-2-carboxamide] |  |
|  | Cc1cc(Oc2ccccc2)ccc1N1C(=O)Nc2c(C(=O)N[C@@H]3CCCN(C(=O)CCO)C3)sc3nccc1c23 (single isomer, unassigned) [Example 318, (R)—N-(1-(3-Hydroxypropanoyl)piperidin-3-yl)-5-(*R)-(2-methyl-4-phenoxyphenyl)-4-oxo-4,5-dihydro-3H-1-thia-3,5,8-triazaacenaphthylene-2-carboxamide] | BTK_I_binding pIC50 [2]: 5.8 |
|  | Cc1cc(Oc2ccccc2)ccc1N1C(=O)Nc2c(C(=O)N[C@H]3CCOC3)sc3nccc1c23 (single isomer, unassigned) [Example 323, (S)-5-(*R)-(2-Methyl-4-phenoxyphenyl)-4-oxo-N-(tetrahydrofuran-3-yl)-4,5-dihydro-3H-1-thia-3,5,8-triazaacenaphthylene-2-carboxamide] | BTK_I_binding pIC50 [2]: 5.7 |
|  | CCC(=O)N1CC[C@@H](NC(=O)c2sc3nccc4c3c2NC(=O)N4c2ccc(Oc3ccccc3)cc2C)C1 (single isomer, unassigned) [Example 325, (R)-5-(*R)-(2-Methyl-4-phenoxyphenyl)-4-oxo-N-(1-propionylpyrrolidin-3-yl)-4,5-dihydro-3H-1-thia-3,5,8-triazaacenaphthylene-2-carboxamide] | BTK_I_binding pIC50 [2]: 5.7 |
|  | CCC(=O)N1CCC[C@@H](NC(=O)c2sc3nccc4c3c2NC(=O)N4c2ccc(Oc3ccccc3)cc2C)C1 (single isomer, unassigned) [Example 345, (R)-5-(*R)-(2-Methyl-4-phenoxyphenyl)-4-oxo-N-(1-propionylpiperidin-3-yl)-4,5-dihydro-3H-1-thia-3,5,8-triazaacenaphthylene-2-carboxamide] | BTK_I_binding pIC50 [2]: <5 |
|  | Cc1cc(Oc2ccccc2)ccc1N1C(=O)Nc2c(C(=O)N[C@@H]3CCCN(C(=O)/C(C#N)=C/C4CC4)C3)sc3nccc1c23 (single isomer, unassigned) [Example 365, (R,E)-N-(1-(2-Cyano-3-cyclopropylacryloyl)piperidin-3-yl)-5-(*R)-(2-methyl-4-phenoxyphenyl)-4-oxo-4,5-dihydro-3H-1-thia-3,5,8-triazaacenaphthylene-2-carboxamide] | IC50 [2]: 50.1 nM |
|  | Cc1cc(Oc2ccccc2)ccc1N1C(=O)Nc2c(C(=O)N[C@@H]3CCCN(C(=O)/C(C#N)=C/C4(C)COC4)C3)sc3nccc1c23 (single isomer, unassigned) [Example 387, (R,E)-N-(1-(2-Cyano-3-(3-methyloxetan-3-yl)acryloyl)piperidin-3-yl)-5-(*R)-(2-methyl-4-phenoxyphenyl)-4-oxo-4,5-dihydro-3H-1-thia-3,5,8-triazaacenaphthylene-2-carboxamide] | BTK_I_binding pIC50 [2]: 7.8 |

| Structure (SMILES) | BTK_I_binding pIC50 [1] | also measured |
| --- | --- | --- |
| Cc1cc(Oc2ccccc2)ccc1N1C(=O)Nc2c(C(=O)N[C@@H]3CCCNC3)sc3nccc1c23 (single isomer, unassigned) [Example 98, (R)-5-(*S)-(2-Methyl-4-phenoxyphenyl)-4-oxo-N-(piperidin-3-yl)-4,5-dihydro-3H-1-thia-3,5,8-triazaacenaphthylene-2-carboxamide] | 7.3 |  |
